# Measurements from ChEMBL document CHEMBL3352027, “Pharmacologically active metabolites, combination screening and target identification-driven drug repositioning in antituberculosis drug discovery” (2014).
# Test system: Mycobacterium tuberculosis
# Experiment: Antitubercular activity against drug-resistant Mycobacterium tuberculosis
# Assay type: functional
row,SMILES,MIC [mg/L]
1,CN[C@@H]1[C@H](O)[C@H](NC)[C@H]2O[C@]3(O)[C@H](O[C@@H]2[C@H]1O)O[C@H](C)C[C@H]3NC(=O)Cc1ccccn1,1.6
2,CN[C@@H]1[C@H](O)[C@H](NC)[C@H]2O[C@]3(O)[C@H](O[C@@H]2[C@H]1O)O[C@H](C)C[C@H]3NC(=O)Cc1ccccc1,1.6
3,CN[C@@H]1[C@H](O)[C@H](NC)[C@H]2O[C@]3(O)[C@H](O[C@@H]2[C@H]1O)O[C@H](C)C[C@H]3NC(=O)Cc1ccc(F)cn1,1.6
4,CN[C@@H]1[C@H](O)[C@H](NC)[C@H]2O[C@]3(O)[C@H](O[C@@H]2[C@H]1O)O[C@H](C)C[C@H]3NC(=O)Cc1ccc(Cl)cn1,1.6
5,CN[C@@H]1[C@H](O)[C@H](NC)[C@H]2O[C@]3(O)[C@H](O[C@@H]2[C@H]1O)O[C@H](C)C[C@H]3NC(=O)CNC(C)(C)C,1.6
6,CN[C@@H]1[C@H](O)[C@H](NC)[C@H]2O[C@]3(O)[C@H](O[C@@H]2[C@H]1O)O[C@H](C)C[C@H]3NC(=O)Cc1cscn1,1.6
7,CN[C@@H]1[C@H](O)[C@H](NC)[C@H]2O[C@]3(O)[C@H](O[C@@H]2[C@H]1O)O[C@H](C)C[C@H]3NC(=O)Cc1cc(Cl)ccn1,1.6
